The values below come from patent US4210648A, “II-Aminoacyl-5,11-dihydro-6H-pyrido(2,3-B) (1,4)benzodiazepin-6-ones and salts thereof” (Boehringer Ingelheim GmbH, priority 1977, dated 1980).

The test system of series [1] is stress ulcers. The series can be described thus: inhibiting effect on the formation of stress ulcers in rats. In kind it is in vivo. How it is done:
(§1) The compounds were examined with regard to their inhibiting effect on the formation of stress ulcers in rats and their spasmolytic effect, related to atropine, with consideration of their acute toxicity.
The inhibiting effect on the formation of stress ulcers in rats was determined according to the method of K. Takagi and S. Okabe, Jap.Journ.Pharmac. 18, pp. 9 to 18 (1968). Fed female rats with a body weight between 220 and 260 gm were individually put into small wire cages and were subsequently kept vertically submerged in a water bath which was kept constant at a temperature of 23° C. for 16 hours, so that only the heads and the breastbones of the animals were above the water surface. The test compounds were administered perorally 5 to 10 minutes before. With each substance five animals were treated. 1 ml of a 0.9% physiological sodium chloride solution or 1 ml of a 1% tylose solution was administered to the control animals in the same way. After 18 hours the animals were killed by an overdose of ethyl chloride, the stomachs were excised, cut along the big curvature and spread on a cork plate. The evaluation was carried out according to the methods of Marazzi-Uberti and Turba, Med. Exp. 4, pp. 284 to 292 (1961), and Takagi and Okabe (supra).

Series [2] has as its system guinea pig colon. The series can be described thus: spasmolytic effect in vitro on the guinea pig colon (acetylcholine-induced spasms; comparison atropinesulfate). The conditions noted are these: relative to atropine = 1. How it is done:
as §1
(§2) The spasmolytic effect was determined in vitro on the guinea pig colon, using the experimental arrangement according to R. Magnus, Pflugers Archiv, 102, pp. 123 (1904). Acetylcholine was taken to induce spasms, the substance for comparison was atropinesulfate. The spasticum was administered one minute before the administration of the spasmolytic substance, and the spasmolytic was allowed to take effect for 1 minute. […] The acute toxicity was determined after peroral administration of the test substance to fasted white mice with a body weight of 18 to 20 gm. The observation period was 14 days. For each dosage a group of six mice was used.

Series [3] can be described thus: acute toxicity after peroral administration to mice. In kind it is in vivo. The conditions noted are these: in vivo, po, mouse, observation 14 days. On the procedure:
as §2

Series [4] deals with mouse. Described as above. It is filed as in vivo. On the procedure: as §2

Broadly, the LD50 is the dose at which mortality reaches 50%. Low readings indicate greater toxicity, high ones lower toxicity.

On to `COC1CCN(CC(=O)N2c3ccccc3C(=O)Nc3cccnc32)CC1` [B, 5,11-Dihydro-11-[(4-methoxypiperidino)acetyl]-6H-pyrido [2,3-b]-[1,4]benzodiazepin-6-one], for which, in series [1], the “Ulcer-inhibition in % (rat) after peroral administr. of 12.5 mg/kg” value (“Ulcer-inhibition in % (rat) … of 12.5 mg/kg” for short) turned out to be 53%, the “Ulcer-inhibition in % (rat) after peroral administr. of 25 mg/kg” value (from here on “Ulcer-inhibition in % (rat) … of 25 mg/kg”) is listed as 79% and the “Ulcer-inhibition in % (rat) after peroral administr. of 50 mg/kg” value (“Ulcer-inhibition in % (rat) … of 50 mg/kg” below) is 89%. Moreover, the “Spasmolysis (acetylcholine) with regard to Atropin = 1” value (shortened to “Spasmolysis (acetylcholine)”) in series [2] is recorded as 1/125. Further, in series [3], the LD50 at 336 h is above 1000 mg/kg. Further, in series [4], the “animals died at 1000 mg/kg” value is recorded as 2 out of 5.

On to `CCN1CCCC1CNCC(=O)N1c2ccccc2C(=O)N(C)c2cccnc21` (stereo not drawn) [A, 11-{[(1-Ethyl-2-pyrrolidinyl)methylamino]acetyl}-5,11-dihydro-5-methyl-6H-pyrido[2,3-b][1,4]benzodiazepin-6-one], for which, in series [1], the “Ulcer-inhibition in % (rat) … of 12.5 mg/kg” value is reported as 90%, the “Ulcer-inhibition in % (rat) … of 25 mg/kg” value is 90% and the “Ulcer-inhibition in % (rat) … of 50 mg/kg” value was determined as 95%. Further, the “Spasmolysis (acetylcholine)” value in series [2] was 1/250. In series [3], this molecule came in with an LD50 at 336 h of around 1500 mg/kg. Further, the “animals died at 1500 mg/kg” value in series [4] was 2 out of 4.

Turning to `O=C1Nc2cccnc2N(C(=O)CCCN2CCCC2)c2ccccc21` [E, 5,11-Dihydro-11-(4-pyrrolidino-butyryl)-6H-pyrido[2,3-b][1,4]-benzodiazepin-6-one], in series [1], the “Ulcer-inhibition in % (rat) … of 12.5 mg/kg” value is reported as 18%, the “Ulcer-inhibition in % (rat) … of 25 mg/kg” value was found to be 58% and the “Ulcer-inhibition in % (rat) … of 50 mg/kg” value was found to be 79%. For the same molecule, the “Spasmolysis (acetylcholine)” value in series [2] was 1/190. Also, the median lethal dose (LD50) at 336 h in series [3] is above 1500 mg/kg. Also, the “animals died at 1500 mg/kg” value in series [4] is recorded as 1 out of 6.

Turning to `O=C1Nc2cccnc2N(C(=O)CCN2CCCCC2)c2ccccc21` [D, 5,11-Dihydro-11-(3-piperidinopropionyl)-6H-pyrido [2,3-b][1,4]-benzodiazepin-6-one], in series [1], the “Ulcer-inhibition in % (rat) … of 12.5 mg/kg” value is 58%, the “Ulcer-inhibition in % (rat) … of 25 mg/kg” value was 69% and the “Ulcer-inhibition in % (rat) … of 50 mg/kg” value was 84%. For the same molecule, the “Spasmolysis (acetylcholine)” value in series [2] is recorded as 1/125. In series [3], the median lethal dose (LD50) at 336 h is around 2000 mg/kg. In addition, in series [4] (2000 mg/kg), the “animals died at 2000 mg/kg” value is recorded as 3 out of 5.

For `CC1CCCCN1CCC(=O)N1c2ccccc2C(=O)Nc2cccnc21` (stereo not drawn) [C, 5,11-Dihydro-11-[3-(2-methylpiperidino)propionyl]-6H-pyrido-[2,3-b][1,4]benzodiazepin-6-one], in series [1], the “Ulcer-inhibition in % (rat) … of 12.5 mg/kg” value turned out to be 79%, the “Ulcer-inhibition in % (rat) … of 25 mg/kg” value came to 84% and the “Ulcer-inhibition in % (rat) … of 50 mg/kg” value is recorded as 95%. The “Spasmolysis (acetylcholine)” value in series [2] is recorded as 1/50. In addition, the 50% lethal dose (LD50) at 336 h in series [3] was above 1000 mg/kg. In addition, in series [4], the “animals died at 1000 mg/kg” value is reported as 1 out of 5.
